Measured values reported in US20100105655A1, “NOVEL COMPOUNDS 515” (ASTRAZENECA AB, priority 2008, published 2010).

Biological target: T1, IGFR kinase (Homo sapiens, UniProt P08069)
T1 construct: purchased Millipore
Test: Enzyme assay (c), IGFR kinase, Caliper LabChip
Format: biochemical
Details: not given
Procedure: For Echo dosing the solvent was 100% DMSO. A master plate was prepared with 40 ul of 10 mM stock solution of the test compound in DMSO in quadrant 1 of a Labcyte 384 well plate. A 1 in 100 dilution was made from quadrant 1 into quadrant 2 by removing 0.4 ul and adding it to 39.6 ul of DMSO. Subsequent 1 in 100 dilutions were made into quadrant 3 from quadrant 2 and quadrant 4 from quadrant 3.
Multiple 2.5 nl droplets were dispensed from each quadrant of the master plate to generate the dose range that was required in the test. The dose range most commonly used was as follows: 100 uM, 30 uM, 10 uM, 3 uM, 1 uM, 0.3 uM, 0.1 uM, 0.03 uM, 0.01 uM, 0.003 uM, 0.001 uM, 0.0001 uM. Each well was backfilled with dimethyl sulfoxide (DMSO) to a total volume of 120 nl, such that when the enzyme and substrate mix was added the final DMSO concentration was 1%.
DMSO was added to max control wells as 120 nl, minimum control wells were treated with 120 nl of compound at a concentration that inhibited the enzyme activity 100%.
Integration of the substrate and product peaks was carried out using Caliper LabChip software and IC50 curves were calculated using Origin™ software.

T1 sequence (P08069 31-1367): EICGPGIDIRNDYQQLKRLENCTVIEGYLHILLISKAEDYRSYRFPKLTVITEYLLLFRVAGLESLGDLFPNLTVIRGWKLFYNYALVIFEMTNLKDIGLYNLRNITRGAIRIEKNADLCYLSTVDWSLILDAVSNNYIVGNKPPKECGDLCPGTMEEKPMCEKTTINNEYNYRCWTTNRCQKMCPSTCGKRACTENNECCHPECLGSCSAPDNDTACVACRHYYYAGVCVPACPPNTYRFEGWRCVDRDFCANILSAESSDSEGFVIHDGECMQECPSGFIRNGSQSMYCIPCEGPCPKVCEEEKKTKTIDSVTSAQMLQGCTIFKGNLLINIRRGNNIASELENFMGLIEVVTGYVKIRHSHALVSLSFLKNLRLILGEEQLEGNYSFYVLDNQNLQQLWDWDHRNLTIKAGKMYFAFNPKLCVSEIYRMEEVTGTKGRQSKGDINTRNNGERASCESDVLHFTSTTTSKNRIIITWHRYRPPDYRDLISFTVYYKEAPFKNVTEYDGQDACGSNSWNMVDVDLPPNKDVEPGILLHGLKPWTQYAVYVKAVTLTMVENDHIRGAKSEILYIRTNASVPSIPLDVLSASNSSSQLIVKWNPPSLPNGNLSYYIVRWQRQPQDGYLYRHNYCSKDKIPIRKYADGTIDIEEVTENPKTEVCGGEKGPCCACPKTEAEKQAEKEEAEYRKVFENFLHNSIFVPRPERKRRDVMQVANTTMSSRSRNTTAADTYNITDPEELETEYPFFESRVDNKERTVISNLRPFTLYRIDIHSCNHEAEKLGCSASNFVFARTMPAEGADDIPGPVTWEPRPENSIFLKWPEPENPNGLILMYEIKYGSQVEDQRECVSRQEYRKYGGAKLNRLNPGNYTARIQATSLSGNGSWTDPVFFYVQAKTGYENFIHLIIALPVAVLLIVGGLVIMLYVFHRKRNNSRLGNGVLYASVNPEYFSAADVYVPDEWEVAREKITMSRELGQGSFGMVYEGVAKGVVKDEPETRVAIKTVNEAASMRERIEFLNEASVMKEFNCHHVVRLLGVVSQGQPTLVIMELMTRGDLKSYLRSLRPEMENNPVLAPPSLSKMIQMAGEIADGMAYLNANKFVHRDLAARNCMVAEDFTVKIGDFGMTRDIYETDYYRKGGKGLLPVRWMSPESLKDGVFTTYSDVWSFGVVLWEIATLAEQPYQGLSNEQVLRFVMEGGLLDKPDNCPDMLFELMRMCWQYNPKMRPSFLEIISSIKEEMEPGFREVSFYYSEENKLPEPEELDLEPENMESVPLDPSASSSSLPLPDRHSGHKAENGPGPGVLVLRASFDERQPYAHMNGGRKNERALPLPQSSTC

IC50 | Structure (SMILES)
7 nM | COc1cc(N2CC3CNCC(C2)O3)ccc1Nc1ncc(Cl)c(-c2cnc3c(F)cccn23)n1 [Example 183, 5-chloro-4-(8-fluoroimidazo[1,2-a]pyridin-3-yl)-N-[2-methoxy-4-(9-oxa-3,7-diazabicyclo[3.3.1]nonan-7-yl)phenyl]pyrimidin-2-amine]

Same assay, conditions: 30 nM IGFR kinase, 6 uM ATP, 3 uM peptide mix; read-out: IGFR IC50

Structure (SMILES) | IC50
COc1cc(OC2CCN(C(=O)[C@H](C)O)CC2)ccc1Nc1ncc(Cl)c(-c2cnc3ccccn23)n1 [Example 9A, (2S)-1-[4-[4-[(5-chloro-4-imidazo[1,2-a]pyridin-3-yl-pyrimidin-2-yl)amino]-3-methoxy-phenoxy]-1-piperidyl]-2-hydroxy-propan-1-one] | 18 nM
COc1cc(N2CCS(=O)(=O)CC2)ccc1Nc1ncc(Cl)c(-c2cnc3ccccn23)n1 [Example 3.15, 5-chloro-N-[4-(1,1-dioxo-1,4-thiazinan-4-yl)-2-methoxy-phenyl]-4-imidazo[1,2-a]pyridin-3-yl-pyrimidin-2-amine] | 60 nM
COc1cc(C2CCN(C(C)=O)C(C)C2)ccc1Nc1ncc(Cl)c(-c2cnc3ccccn23)n1 (centres unmarked) [Example 59.1, 1-[4-[4-[(5-chloro-4-imidazo[1,2-a]pyridin-3-yl-pyrimidin-2-yl)amino]-3-methoxy-phenyl]-2-methyl-1-piperidyl]ethanone] | 17 nM
COc1cc(OC2CN(C(=O)[C@H](C)OC)C2)ccc1Nc1ncc(Cl)c(-c2cnc3ccccn23)n1 [Example 27.2, (2S)-1-[3-[4-[(5-chloro-4-imidazo[1,2-a]pyridin-3-yl-pyrimidin-2-yl)amino]-3-methoxy-phenoxy]azetidin-1-yl]-2-methoxy-propan-1-one] | 36 nM
COc1cc(O[C@H]2CCNC2)ccc1Nc1ncc(Cl)c(-c2cnc3ccccn23)n1 [Example 6.6, 5-chloro-4-imidazo[1,2-a]pyridin-3-yl-N-[2-methoxy-4-[(3S)-pyrrolidin-3-yl]oxy-phenyl]pyrimidin-2-amine] | 14 nM
COc1ccc(N2CCCC2)cc1Nc1ncc(Cl)c(-c2cnc3ccccn23)n1 [Example 3.8, 5-chloro-4-imidazo[1,2-a]pyridin-3-yl-N-(2-methoxy-5-pyrrolidin-1-yl-phenyl)pyrimidin-2-amine] | 309 nM
COc1cc(OC2CN(C(=O)N(C)CCO)C2)ccc1Nc1ncc(Cl)c(-c2cnc3ccccn23)n1 [Example 68, 3-[4-[(5-chloro-4-imidazo[1,2-a]pyridin-3-yl-pyrimidin-2-yl)amino]-3-methoxy-phenoxy]-N-(2-hydroxyethyl)-N-methyl-azetidine-1-carboxamide] | 24 nM
COc1cc(C(C)C(=O)N2CCNCC2)ccc1Nc1ncc(Cl)c(-c2cnc3ccccn23)n1 (centres unmarked) [Example 3.42, 2-[4-[(5-chloro-4-imidazo[1,2-a]pyridin-3-yl-pyrimidin-2-yl)amino]-3-methoxy-phenyl]-1-piperazin-1-yl-propan-1-one] | 25 nM
COc1cc(CN2CCC2)ccc1Nc1ncc(Cl)c(-c2cnc3ccccn23)n1 [Example 21.10, N-[4-(azetidin-1-ylmethyl)-2-methoxy-phenyl]-5-chloro-4-imidazo[1,2-a]pyridin-3-yl-pyrimidin-2-amine] | 18 nM
COc1cc(N2CCN(C(=O)[C@@H]3CCC(=O)N3)CC2)ccc1Nc1ncc(Cl)c(-c2cnc3ccccn23)n1 [Example 25.1A, (5S)-5-[4-[4-[(5-chloro-4-imidazo[1,2-a]pyridin-3-yl-pyrimidin-2-yl)amino]-3-methoxy-phenyl]piperazine-1-carbonyl]pyrrolidin-2-one] | 8 nM
COc1cc(OC2CN(C[C@H](C)O)C2)ccc1Nc1ncc(Cl)c(-c2cnc3ccccn23)n1 [Example 61, (2S)-1-[3-[4-[(5-chloro-4-imidazo[1,2-a]pyridin-3-yl-pyrimidin-2-yl)amino]-3-methoxy-phenoxy]azetidin-1-yl]propan-2-ol] | 21 nM
COc1cc(N2CCN(S(=O)(=O)N(C)C)CC2)ccc1Nc1ncc(F)c(-c2cnc3ccccn23)n1 [Example 74, 4-[4-[(5-fluoro-4-imidazo[1,2-a]pyridin-3-yl-pyrimidin-2-yl)amino]-3-methoxy-phenyl]-N,N-dimethyl-piperazine-1-sulfonamide] | 42 nM

The next lines start with the values.

IC50 | Structure (SMILES)
3 nM | COc1cc(N2CCN(C(=O)[C@@H](C)O)CC2)ccc1Nc1ncc(Cl)c(-c2cnn3ccccc23)n1 [Example 131, (2R)-1-[4-[4-[(5-chloro-4-pyrazolo[1,5-a]pyridin-3-yl-pyrimidin-2-yl)amino]-3-methoxy-phenyl]piperazin-1-yl]-2-hydroxy-propan-1-one]
5 nM | COc1cc(N2CCN(C(C)(C)CO)CC2)ccc1Nc1ncc(Cl)c(-c2cnn3ccccc23)n1 [Example 230, 2-[4-[4-[(5-chloro-4-pyrazolo[1,5-a]pyridin-3-yl-pyrimidin-2-yl)amino]-3-methoxy-phenyl]piperazin-1-yl]-2-methyl-propan-1-ol]
7 nM | CNC(=O)[C@H](C)Oc1ccc(Nc2ncc(Cl)c(-c3cnc4c(F)cccn34)n2)c(OC)c1 [Example 218, (2S)-2-[4-[[5-chloro-4-(8-fluoroimidazo[1,2-a]pyridin-3-yl)pyrimidin-2-yl]amino]-3-methoxy-phenoxy]-N-methyl-propanamide]
3 nM | COc1cc(C2CCN(C(=O)CO)CC2)ccc1Nc1ncc(C#N)c(-c2cnn3ccccc23)n1 [Example 240, 2-[4-[1-(2-hydroxyacetyl)-4-piperidyl]-2-methoxy-anilino]-4-pyrazolo[1,5-a]pyridin-3-yl-pyrimidine-5-carbonitrile]
7 nM | COc1cc(N2CC3CN(CC(=O)N(C)C)CC(C2)O3)ccc1Nc1ncc(Cl)c(-c2cnc3c(F)cccn23)n1 [Example 205, 2-[3-[4-[[5-chloro-4-(8-fluoroimidazo[1,2-a]pyridin-3-yl)pyrimidin-2-yl]amino]-3-methoxy-phenyl]-9-oxa-3,7-diazabicyclo[3.3.1]nonan-7-yl]-N,N-dimethyl-acetamide]
9 nM | COc1cc(N2CCN(C(=O)CN3CCOCC3)CC2)ccc1Nc1ncc(Cl)c(-c2cnc3ccccn23)n1 [Example 275, 1-[4-[4-[(5-chloro-4-imidazo[1,2-a]pyridin-3-yl-pyrimidin-2-yl)amino]-3-methoxy-phenyl]piperazin-1-yl]-2-morpholino-ethanone]
133 nM | COc1cc(N2CCCC2)ccc1Nc1ncc(F)c(-c2cnc3ccccn23)n1 [Example 80, 5-fluoro-4-imidazo[1,2-a]pyridin-3-yl-N-(2-methoxy-4-pyrrolidin-1-yl-phenyl)pyrimidin-2-amine]
13 nM | COc1cc(N2CCN(C(=O)[C@@H](C)N)CC2)ccc1Nc1ncc(C)c(-c2cnn3ccccc23)n1 [Example 235, (2R)-2-amino-1-[4-[3-methoxy-4-[(5-methyl-4-pyrazolo[1,5-a]pyridin-3-yl-pyrimidin-2-yl)amino]phenyl]piperazin-1-yl]propan-1-one]
6 nM | COc1cc(N2CCNCC2)ccc1Nc1ncc(Cl)c(-c2cnc3c(F)cc(F)cn23)n1 [Example 265, 5-chloro-4-(6,8-difluoroimidazo[1,2-a]pyridin-3-yl)-N-(2-methoxy-4-piperazin-1-yl-phenyl)pyrimidin-2-amine]
36 nM | CNCc1ccn2c(-c3nc(Nc4ccc(N5CCN(C(C)=O)CC5)cc4OC)ncc3Cl)cnc2c1 [Example 186, 1-[4-[4-[[5-chloro-4-[7-(methylaminomethyl)imidazo[1,2-a]pyridin-3-yl]pyrimidin-2-yl]amino]-3-methoxy-phenyl]piperazin-1-yl]ethanone]
